Assay results taken from PubChem BioAssay (NCI).
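Assay format: 96-well plates, 48-hour exposure. Abbreviation: GI50, concentration required for 50% inhibition of growth. At the TGI there is no net growth.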

Experiments:
Test in all cases: inhibition of tumour cell growth, NCI panel, 48 h
U251 CNS = tested on: U251 CNS
UO-31 renal = tested on: UO-31 renal
SK-MEL-2 melanoma = tested on: SK-MEL-2 melanoma
DU-145 prostate = tested on: DU-145 prostate
SN12C renal = tested on: SN12C renal
PC-3 prostate = tested on: PC-3 prostate
A498 renal = tested on: A498 renal
HOP-92 NSCLC = tested on: HOP-92 NSCLC
HCT-116 colon = tested on: HCT-116 colon
HL-60(TB) leukemia = tested on: HL-60(TB) leukemia
UACC-62 melanoma = tested on: UACC-62 melanoma
SNB-19 CNS = tested on: SNB-19 CNS
CAKI-1 renal = tested on: CAKI-1 renal
K-562 leukemia = tested on: K-562 leukemia
NCI-H460 lung = tested on: NCI-H460 lung
SF-268 CNS = tested on: SF-268 CNS
IGROV1 ovarian = tested on: IGROV1 ovarian
SK-MEL-5 melanoma = tested on: SK-MEL-5 melanoma
MDA-MB-231 breast = tested on: MDA-MB-231 breast
SR leukemia = tested on: SR leukemia
HS 578T breast = tested on: HS 578T breast
HT29 colon = tested on: HT29 colon
SF-295 CNS = tested on: SF-295 CNS
MCF7 breast = tested on: MCF7 breast
MOLT-4 leukemia = tested on: MOLT-4 leukemia
BT-549 breast = tested on: BT-549 breast
T-47D breast = tested on: T-47D breast
CCRF-CEM leukemia = tested on: CCRF-CEM leukemia
A549 NSCLC = tested on: A549 NSCLC
NCI/ADR-RES ovarian = tested on: NCI/ADR-RES ovarian
HOP-62 NSCLC = tested on: HOP-62 NSCLC
LOX IMVI melanoma = tested on: LOX IMVI melanoma
SK-MEL-28 melanoma = tested on: SK-MEL-28 melanoma
NCI-H522 lung = tested on: NCI-H522 lung
NCI-H226 lung = tested on: NCI-H226 lung
EKVX NSCLC = tested on: EKVX NSCLC
786-0 renal = tested on: 786-0 renal
NCI-H23 lung = tested on: NCI-H23 lung
MALME-3M melanoma = tested on: MALME-3M melanoma
ACHN renal = tested on: ACHN renal
OVCAR-4 ovarian = tested on: OVCAR-4 ovarian
SF-539 CNS = tested on: SF-539 CNS
UACC-257 melanoma = tested on: UACC-257 melanoma
MDA-MB-435 = tested on: MDA-MB-435
TK-10 renal = tested on: TK-10 renal
SW-620 colon = tested on: SW-620 colon
SK-OV-3 ovarian = tested on: SK-OV-3 ovarian
M14 melanoma = tested on: M14 melanoma
HCC-2998 colon = tested on: HCC-2998 colon
RXF 393 renal = tested on: RXF 393 renal
RPMI-8226 leukemia = tested on: RPMI-8226 leukemia
KM12 colon = tested on: KM12 colon
OVCAR-5 ovarian = tested on: OVCAR-5 ovarian
SNB-75 CNS = tested on: SNB-75 CNS
COLO 205 colon = tested on: COLO 205 colon
HCT-15 colon = tested on: HCT-15 colon

CCOP(=O)(OCC)OC[C@]12CCC(C)(C)C=C1[C@H]1CC[C@@H]3[C@@]4(C)CC[C@H](OP(=O)(OCC)OCC)C(C)(C)[C@@H]4CC[C@@]3(C)[C@]1(C)CC2
GI50 (U251 CNS): 1580 nM
TGI (U251 CNS): 3170 nM
GI50 (UO-31 renal): 1360 nM
TGI (UO-31 renal): 2680 nM
GI50 (SK-MEL-2 melanoma): 1670 nM
TGI (SK-MEL-2 melanoma): 3120 nM
GI50 (DU-145 prostate): 1670 nM
TGI (DU-145 prostate): 3050 nM
GI50 (SN12C renal): 1350 nM
TGI (SN12C renal): 2850 nM
GI50 (PC-3 prostate): 673 nM
TGI (PC-3 prostate): 2260 nM
GI50 (A498 renal): 1530 nM
TGI (A498 renal): 2900 nM
GI50 (HOP-92 NSCLC): 1160 nM
TGI (HOP-92 NSCLC): 2530 nM
GI50 (HCT-116 colon): 1540 nM
TGI (HCT-116 colon): 3090 nM
GI50 (HL-60(TB) leukemia): 611 nM
TGI (HL-60(TB) leukemia): 3020 nM
GI50 (UACC-62 melanoma): 1110 nM
TGI (UACC-62 melanoma): 2490 nM
GI50 (SNB-19 CNS): 1550 nM
TGI (SNB-19 CNS): 3040 nM
GI50 (CAKI-1 renal): 970 nM
TGI (CAKI-1 renal): 2180 nM
GI50 (K-562 leukemia): 388 nM
TGI (K-562 leukemia): 3130 nM
GI50 (NCI-H460 lung): 1670 nM
TGI (NCI-H460 lung): 3210 nM
GI50 (SF-268 CNS): 1550 nM
TGI (SF-268 CNS): 3020 nM
GI50 (IGROV1 ovarian): 1720 nM
TGI (IGROV1 ovarian): 3260 nM
GI50 (SK-MEL-5 melanoma): 1680 nM
TGI (SK-MEL-5 melanoma): 3070 nM
GI50 (MDA-MB-231 breast): 1410 nM
TGI (MDA-MB-231 breast): 3040 nM
GI50 (SR leukemia): 866 nM
TGI (SR leukemia): 5560 nM
GI50 (HS 578T breast): 1760 nM
TGI (HS 578T breast): 4220 nM
GI50 (HT29 colon): 1360 nM
TGI (HT29 colon): 2780 nM
GI50 (SF-295 CNS): 1410 nM
TGI (SF-295 CNS): 2770 nM
GI50 (MCF7 breast): 1480 nM
TGI (MCF7 breast): 3000 nM
GI50 (MOLT-4 leukemia): 1200 nM
TGI (MOLT-4 leukemia): 3660 nM
GI50 (BT-549 breast): 1460 nM
TGI (BT-549 breast): 2930 nM
GI50 (T-47D breast): 1530 nM
TGI (T-47D breast): 3260 nM
GI50 (CCRF-CEM leukemia): 2300 nM
TGI (CCRF-CEM leukemia): 8870 nM
GI50 (A549 NSCLC): 1530 nM
TGI (A549 NSCLC): 3250 nM
GI50 (NCI/ADR-RES ovarian): 1570 nM
TGI (NCI/ADR-RES ovarian): 3290 nM
GI50 (HOP-62 NSCLC): 1610 nM
TGI (HOP-62 NSCLC): 3140 nM
GI50 (LOX IMVI melanoma): 1300 nM
TGI (LOX IMVI melanoma): 2660 nM
GI50 (SK-MEL-28 melanoma): 1540 nM
TGI (SK-MEL-28 melanoma): 2910 nM
GI50 (NCI-H522 lung): 1640 nM
TGI (NCI-H522 lung): 3160 nM
GI50 (NCI-H226 lung): 1650 nM
TGI (NCI-H226 lung): 3600 nM
GI50 (EKVX NSCLC): 1480 nM
TGI (EKVX NSCLC): 2910 nM
GI50 (786-0 renal): 1600 nM
TGI (786-0 renal): 3080 nM
GI50 (NCI-H23 lung): 1190 nM
TGI (NCI-H23 lung): 2810 nM
GI50 (MALME-3M melanoma): 1540 nM
TGI (MALME-3M melanoma): 2960 nM
GI50 (ACHN renal): 1630 nM
TGI (ACHN renal): 2980 nM
GI50 (OVCAR-4 ovarian): 1910 nM
TGI (OVCAR-4 ovarian): 4010 nM
GI50 (SF-539 CNS): 1660 nM
TGI (SF-539 CNS): 3120 nM
GI50 (UACC-257 melanoma): 1560 nM
TGI (UACC-257 melanoma): 3080 nM
GI50 (MDA-MB-435): 1590 nM
TGI (MDA-MB-435): 2990 nM
GI50 (TK-10 renal): 1580 nM
TGI (TK-10 renal): 2980 nM
GI50 (SW-620 colon): 1640 nM
TGI (SW-620 colon): 3140 nM
GI50 (SK-OV-3 ovarian): 1530 nM
TGI (SK-OV-3 ovarian): 2960 nM
GI50 (M14 melanoma): 1660 nM
TGI (M14 melanoma): 3340 nM
GI50 (HCC-2998 colon): 1390 nM
TGI (HCC-2998 colon): 2920 nM
GI50 (RXF 393 renal): 1520 nM
TGI (RXF 393 renal): 3080 nM
GI50 (RPMI-8226 leukemia): 547 nM
TGI (RPMI-8226 leukemia): 3430 nM
GI50 (KM12 colon): 1560 nM
TGI (KM12 colon): 2930 nM
GI50 (OVCAR-5 ovarian): 1480 nM
TGI (OVCAR-5 ovarian): 2860 nM
GI50 (SNB-75 CNS): 1370 nM
TGI (SNB-75 CNS): 2690 nM
GI50 (COLO 205 colon): 1650 nM
TGI (COLO 205 colon): 3230 nM
GI50 (HCT-15 colon): 1430 nM
TGI (HCT-15 colon): 2870 nM
